For orientation: Kd means the free concentration of one partner at which half of the binding sites on the other are occupied at equilibrium, for simple one-to-one binding. A low value points to a tighter complex. For orientation: stoichiometry N means a count of units in the complex or per binding partner.

Experimental findings from paper PMC6522372 (Nature chemical biology, 2019) are described below.

In data set [1] the target is T1, McsB (Geobacillus stearothermophilus, UniProt P0DMM5).
T1 sequence (P0DMM5 1-363): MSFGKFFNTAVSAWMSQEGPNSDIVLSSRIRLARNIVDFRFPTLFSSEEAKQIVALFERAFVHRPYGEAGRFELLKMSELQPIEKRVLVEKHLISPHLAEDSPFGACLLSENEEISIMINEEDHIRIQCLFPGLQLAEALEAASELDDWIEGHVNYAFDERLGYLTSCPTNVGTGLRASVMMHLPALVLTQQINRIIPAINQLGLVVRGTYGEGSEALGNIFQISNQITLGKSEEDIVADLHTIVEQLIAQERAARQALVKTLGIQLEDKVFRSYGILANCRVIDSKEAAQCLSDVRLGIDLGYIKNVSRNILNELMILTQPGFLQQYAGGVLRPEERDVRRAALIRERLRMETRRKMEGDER
As to the kind of experiment: SPR, steady-state. In kind it is binding. On the technique in general: SPR reads the build-up and loss of mass on a sensor chip optically.

For data set [2], the target named is T2, McsB (Geobacillus stearothermophilus, UniProt P0DMM5).
T2 sequence (P0DMM5 1-355): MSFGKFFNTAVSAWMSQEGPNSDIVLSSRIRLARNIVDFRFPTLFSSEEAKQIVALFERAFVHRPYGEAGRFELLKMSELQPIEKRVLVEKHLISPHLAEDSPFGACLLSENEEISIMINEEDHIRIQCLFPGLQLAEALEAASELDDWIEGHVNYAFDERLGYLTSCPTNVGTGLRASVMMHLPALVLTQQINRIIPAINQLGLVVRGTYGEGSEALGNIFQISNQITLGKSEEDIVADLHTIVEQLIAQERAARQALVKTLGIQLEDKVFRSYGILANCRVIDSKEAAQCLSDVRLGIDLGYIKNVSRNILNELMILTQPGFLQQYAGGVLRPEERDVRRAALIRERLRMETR
The experiment in a line: X-ray crystal structure. The data set is classed as binding.

The data set “SEC-MALS” concerns the molecule itself. As to the kind of experiment: SEC-MALS. For orientation: Size exclusion chromatography separates by hydrodynamic size, large species first.

On McsB [1], `Nc1ncnc2c1ncn2[C@@H]1O[C@H](COP(=O)(O)OP(=O)(O)O)[C@@H](O)[C@H]1O` [ADP] displayed a Kd of 208 ± 60 µM. As for `Nc1ncnc2c1ncn2[C@@H]1O[C@H](COP(=O)(O)OP(N)(=O)O)[C@@H](O)[C@H]1O` [AMP-PN], on McsB [2], the “X-ray crystal structure (soak with AMP-PNP, hydrolysed to AMP-PN)” value is reported as “the Mg⋅ATP-binding site shows a clear electron density for AMP-PN”.

Consider `Nc1ncnc2c1ncn2[C@@H]1O[C@H](COP(=O)(O)OP(=O)(O)OP(=O)(O)O)[C@@H](O)[C@H]1O` [ATP], for which, on McsB [1], the affinity, expressed as Kd, was 262 ± 27 µM.

B1: full-length McsB R338A/D339A (enzyme)
chain: MSFGKFFNTAVSAWMSQEGPNSDIVLSSRIRLARNIVDFRFPTLFSSEEAKQIVALFERAFVHRPYGEAGRFELLKMSELQPIEKRVLVEKHLISPHLAEDSPFGACLLSENEEISIMINEEDHIRIQCLFPGLQLAEALEAASELDDWIEGHVNYAFDERLGYLTSCPTNVGTGLRASVMMHLPALVLTQQINRIIPAINQLGLVVRGTYGEGSEALGNIFQISNQITLGKSEEDIVADLHTIVEQLIAQERAARQALVKTLGIQLEDKVFRSYGILANCRVIDSKEAAQCLSDVRLGIDLGYIKNVSRNILNELMILTQPGFLQQYAGGVLRPEEAAVRRAALIRERLRMETRRKMEGDER
Turning to B1, the “stoichiometry N” value in “SEC-MALS” was determined as 2.
